Columns and labels:
HeLa = test: Antiproliferative activity against human HeLa cells assessed as cell viability after 72 hrs by MTT assay; assay type: functional, cell-based
MCF7 = test: Antiproliferative activity against human MCF7 cells assessed as cell viability after 72 hrs by MTT assay; assay type: functional, cell-based; details: MCF7, 72 h
HepG2 = test: Antiproliferative activity against human HepG2 cells assessed as cell viability after 72 hrs by MTT assay; assay type: functional, cell-based; details: HepG2, 72 h
A549 = test: Antiproliferative activity against human A549 cells assessed as cell viability after 72 hrs by MTT assay; assay type: functional, cell-based; details: A549, 72 h
[1] = Antiproliferative activity against human HCT116 cells assessed as cell viability after 72 hrs by MTT assay; assay type: functional, cell-based; details: HCT-116, 72 h
[2] = Antiproliferative activity against human HL60 cells assessed as cell viability after 72 hrs by MTT assay; assay type: functional, cell-based; details: HL-60, 72 h
[3] = Cytotoxicity against human HBMEC cells assessed as cell viability after 72 hrs by MTT assay; assay type: cell-based
[4] = Cytotoxicity against human LO2 cells assessed as cell viability after 72 hrs by MTT assay; assay type: cell-based; details: L02, 72 h
[5] = Cytotoxicity against human CCD-841-CoN cells assessed as cell viability after 72 hrs by MTT assay; assay type: cell-based
HaCaT = test: Cytotoxicity against human HaCaT cells assessed as cell viability after 72 hrs by MTT assay; assay type: cell-based
[6] = Cytotoxicity against human BEAS2B cells assessed as cell viability after 72 hrs by MTT assay; assay type: cell-based; details: BEAS-2B
[7] = Cell cycle arrest in human HCT116 cells assessed as accumulation at G1 phase at 2 uM after 72 hrs by Propidium iodide staining-based flow cytometric analysis (reference value: 57.02 %); assay type: functional; details: HCT-116
[8] = Cell cycle arrest in human HCT116 cells assessed as accumulation at G2 phase at 2 uM after 72 hrs by Propidium iodide staining-based flow cytometric analysis (reference value: 5.69 %); assay type: functional; details: HCT-116
[9] = Cell cycle arrest in human HCT116 cells assessed as accumulation at S phase at 2 uM after 72 hrs by Propidium iodide staining-based flow cytometric analysis (reference value: 37.29 %); assay type: functional; details: HCT-116
[10] = Cell cycle arrest in human HCT116 cells assessed as accumulation at G1 phase at 4 uM after 72 hrs by Propidium iodide staining-based flow cytometric analysis (reference value: 57.02 %); assay type: functional; details: HCT-116
[11] = Cell cycle arrest in human HCT116 cells assessed as accumulation at G2 phase at 4 uM after 72 hrs by Propidium iodide staining-based flow cytometric analysis (reference value: 5.69 %); assay type: functional; details: HCT-116
[12] = Cell cycle arrest in human HCT116 cells assessed as accumulation at S phase at 4 uM after 72 hrs by Propidium iodide staining-based flow cytometric analysis (reference value: 37.29 %); assay type: functional; details: HCT-116
[13] = Cell cycle arrest in human HCT116 cells assessed as accumulation at G1 phase at 8 uM after 72 hrs by Propidium iodide staining-based flow cytometric analysis (reference value: 57.02 %); assay type: functional; details: HCT-116
[14] = Cell cycle arrest in human HCT116 cells assessed as accumulation at G2 phase at 8 uM after 72 hrs by Propidium iodide staining-based flow cytometric analysis (reference value: 5.69 %); assay type: functional; details: HCT-116
[15] = Cell cycle arrest in human HCT116 cells assessed as accumulation at S phase at 8 uM after 72 hrs by Propidium iodide staining-based flow cytometric analysis (reference value: 37.29 %); assay type: functional; details: HCT-116
HCT-116 [16] = test: Induction of apoptosis in human HCT116 cells assessed as viable cells at 2 uM after 72 hrs by Annexin V/Propidium iodide staining based flow cytometric analysis (reference value: 92.47 %); assay type: functional; details: HCT-116, 72 h, read-out: Activity
HCT-116 [17] = test: Induction of apoptosis in human HCT116 cells assessed as early apoptotic cells at 2 uM after 72 hrs by Annexin V/Propidium iodide staining based flow cytometric analysis (reference value: 5.07 %); assay type: functional
HCT-116 [18] = test: Induction of apoptosis in human HCT116 cells assessed as late apoptotic cells at 2 uM after 72 hrs by Annexin V/Propidium iodide staining based flow cytometric analysis (reference value: 1.49 %); assay type: functional
HCT-116 [19] = test: Induction of apoptosis in human HCT116 cells assessed as necrotic cells at 2 uM after 72 hrs by Annexin V/Propidium iodide staining based flow cytometric analysis (reference value: 0.97 %); assay type: functional
HCT-116 [20] = test: Induction of apoptosis in human HCT116 cells assessed as viable cells at 4 uM after 72 hrs by Annexin V/Propidium iodide staining based flow cytometric analysis (reference value: 92.47 %); assay type: functional; details: HCT-116, 72 h, read-out: Activity
HCT-116 [21] = test: Induction of apoptosis in human HCT116 cells assessed as early apoptotic cells at 4 uM after 72 hrs by Annexin V/Propidium iodide staining based flow cytometric analysis (reference value: 5.07 %); assay type: functional
HCT-116 [22] = test: Induction of apoptosis in human HCT116 cells assessed as late apoptotic cells at 4 uM after 72 hrs by Annexin V/Propidium iodide staining based flow cytometric analysis (reference value: 1.49 %); assay type: functional
HCT-116 [23] = test: Induction of apoptosis in human HCT116 cells assessed as necrotic cells at 4 uM after 72 hrs by Annexin V/Propidium iodide staining based flow cytometric analysis (reference value: 0.97 %); assay type: functional
HCT-116 [24] = test: Induction of apoptosis in human HCT116 cells assessed as viable cells at 8 uM after 72 hrs by Annexin V/Propidium iodide staining based flow cytometric analysis (reference value: 92.47 %); assay type: functional; details: HCT-116, 72 h, read-out: Activity
HCT-116 [25] = test: Induction of apoptosis in human HCT116 cells assessed as early apoptotic cells at 8 uM after 72 hrs by Annexin V/Propidium iodide staining based flow cytometric analysis (reference value: 5.07 %); assay type: functional
HCT-116 [26] = test: Induction of apoptosis in human HCT116 cells assessed as late apoptotic cells at 8 uM after 72 hrs by Annexin V/Propidium iodide staining based flow cytometric analysis (reference value: 1.49 %); assay type: functional
HCT-116 [27] = test: Induction of apoptosis in human HCT116 cells assessed as necrotic cells at 8 uM after 72 hrs by Annexin V/Propidium iodide staining based flow cytometric analysis (reference value: 0.97 %); assay type: functional
HCT-116 [28] = test: Induction of apoptosis in human HCT116 cells assessed as mitochondrial membrane potential at 2 uM after 72 hrs by JC-1 staining based flow cytometric analysis (reference value: 98.02 %); assay type: functional
HCT-116 [29] = test: Induction of apoptosis in human HCT116 cells assessed as mitochondrial membrane potential at 4 uM after 72 hrs by JC-1 staining based flow cytometric analysis (reference value: 98.02 %); assay type: functional
HCT-116 [30] = test: Induction of apoptosis in human HCT116 cells assessed as mitochondrial membrane potential at 8 uM after 72 hrs by JC-1 staining based flow cytometric analysis (reference value: 98.02 %); assay type: functional
HCT-116 [31] = test: Induction of apoptosis in human HCT116 cells assessed as decrease in mitochondrial membrane potential after 72 hrs by JC-1 staining based flow cytometric analysis; assay type: functional, cell-based

Structure (SMILES): CC(C)c1ccc(/C=C/C(=O)N[C@H]2[C@H](O[C@H]3CC[C@]4(C)[C@H]5CC=C6[C@@H]7CC(C)(C)CC[C@]7(C(=O)O)CC[C@@]6(C)[C@]5(C)CC[C@H]4C3(C)C)O[C@H](CO[C@@H]3OC[C@H](O)[C@H](O)[C@H]3O)[C@@H](O)[C@@H]2O)cc1
- IC50 (HeLa): > 50 µM
- IC50 (MCF7): > 50 µM
- IC50 (HepG2): > 50 µM
- IC50 (A549): > 50 µM
- IC50 [1]: 7.6 µM
- IC50 [2]: > 50 µM
- IC50 [3]: > 50 µM
- IC50 [4]: > 50 µM
- IC50 [5]: > 50 µM
- IC50 (HaCaT): > 50 µM
- IC50 [6]: > 50 µM
- Activity [7]: 53.8%
- Activity [8]: 9.86%
- Activity [9]: 36.4%
- Activity [10]: 46.5%
- Activity [11]: 11.4%
- Activity [12]: 42.1%
- Activity [13]: 40.8%
- Activity [14]: 16.5%
- Activity [15]: 42.8%
- viability at 2 µM (HCT-116 [16]): 81.6%
- Activity (HCT-116 [17]): 4.51%
- Activity (HCT-116 [18]): 12.21%
- Activity (HCT-116 [19]): 1.67%
- viability at 4 µM (HCT-116 [20]): 63.3%
- Activity (HCT-116 [21]): 5.4%
- Activity (HCT-116 [22]): 28%
- Activity (HCT-116 [23]): 3.34%
- viability at 8 µM (HCT-116 [24]): 28.3%
- Activity (HCT-116 [25]): 40.8%
- Activity (HCT-116 [26]): 27%
- Activity (HCT-116 [27]): 3.9%
- Activity (HCT-116 [28]): 86.87%
- Activity (HCT-116 [29]): 73.55%
- Activity (HCT-116 [30]): 47.79%
- Activity (HCT-116 [31]): Dose-dependent effect

Source: ChEMBL document CHEMBL3774313, “Natural product-based design, synthesis and biological evaluation of Albiziabioside A derivatives that selectively induce HCT116 cell death” (Eur J Med Chem, 2016)
